Patent US5026724A, “Compounds with bronchodilator activity” (Akzo N.V., priority 1988, dated 1991)
pEC50: −log10 of the molar value. Structures can show the parent of a compound that is named as a salt.

Test system: Isolated, single ring preparations of guinea-pig trachea
Assay: relaxant effect after tone contracture induced by histamine in isolated guinea-pig trachea rings
Format: cell-based
Conditions: Cavia porcellus, contracture by histamine (40 μM), flurbiprofen (1 μM) present, 37° C., cumulative concentration-effect curves
Procedure: Compounds of formula I show strong bronchodilator activity, which for instance can be measured by the relaxant effect of the compounds after tone contracture by histamine, which is determined as follows. Isolated, single ring preparations of guinea-pig trachea were suspended in tissue baths containing KrebsHenseleit solution, at 37° C., bubbled with a gaseous mixture of 5% CO2 and 95% 02 Tissues were allowed to equilibrate for 60 min. after which flurbiprofen (1 μM), a cyclo-oxygenase inhibitor, was added to the tissue bath and a further 60 min. equilibration allowed to elapse. The flurbiprofen remained in contact with the tissue for the duration of the experiment in order to eliminate the complications that arise in guinea-pig airway preparations due to the spontaneous and agonist-induced generation of cyclo-oxygenase products (for example PGE2 and PGF2α) No other drugs (e.g. atropine or β-adrenoceptor antagonists) were present during the experimental protocol. […] Thus, tone (contracture) was induced by addition of an equi-effective (EC50) concentration of histamine (40 μM). The relaxant effects of each compound were tested by constructing cumulative concentration-effect curves. In each experiment, three preparations were contracted with histamine. After completion of the relaxant concentration-effect curves the compound under test was thoroughly washed out from the preparations which were then left to recover to control levels of resting tension (approx. 60 min.). Results of this test for the compounds of formula I are denoted in the table.

| Structure (SMILES) | pEC50 |
| --- | --- |
| COc1cc2cc(/C=N\O)sc2cc1OC [H OCH3 H H(Z-isomer) S none, (Z)-5,6-dimethoxy-benzo[b]thiophene-2-carboxaldehyde oxime] | 5.30 |
| COc1cc2sc(C=NO)cc2c(Cl)c1OC (mixture of isomers) [Cl OCH3 H H(Z/E mixture) S none, 4-chloro-5,6-dimethoxy-benzo[b]thiophene-2-carboxaldehyde oxime] | 5.30 |
| COc1cc(OC)c2cc(C(=N)NO)oc2c1 [OCH3 H H NH2 O HCl, N-hydroxy-4,6-dimethoxy-benzo[b]furan-2-carboximidamide] | 5.30 |
| COc1cc2cc(C(=N)NO)sc2cc1OC [H OCH3 H NH2 S none, N-hydroxy-5,6-dimethoxy-benzo[b]thiophene-2-carboximidamide] | 5.10 |
| COc1cc2sc(C(=N)NO)cc2c(Br)c1OC [Br OCH3 H NH2 S CH3 SO3 H, 4-bromo-N-hydroxy-5,6-dimethoxy-benzo[b]thiophene-2-carboximidamide methanesulphonate] | 6.00 |
| COc1cc2cc(/C=N/O)sc2cc1OC [H OCH3 H H(E-isomer) S none, (E)-5,6-dimethoxy-benzo[b]thiophene-2-carboxaldehyde oxime] | 5.70 |
| COc1cc2c(cc1OC)CCC(C(=N)NO)=C2 [H OCH3 H NH2 (CH2)2 HCl, 1,2-dihydro-N-hydroxy-6,7-dimethoxy-naphthalene-3-carboximidamide] | 5.52 |
| COc1cc2cc(/C(C)=N/O)sc2cc1OC [H OCH3 H CH3 (E-isomer) S none, (E)-1-(5,6-dimethoxy-benzo[b]thien-2-yl)-ethanone oxime] | 7.00 |
| COc1cc2sc(C(=N)NO)cc2c(F)c1OC [F OCH3 H NH2 S CH3 SO3 H, 4-fluoro-N-hydroxy-5,6-dimethoxy-benzo[b]thiophene-2-carboximidamide] | 5.60 |
| COc1cc2sc(C(=N)NO)cc2cc1OC(F)F [H OCHF2 H NH2 S HCl, 5-difluoromethyloxy-N-hydroxy-6-methoxy-benzo[b]thiophene-2-carboximidamide hydrochloride] | 5.30 |
| COc1cc2sc(C(=N)NO)cc2c(Cl)c1O [Cl OH H NH2 S HCl, 4-chloro-5,N-dihydroxy-6-methoxy-benzo[b]thiophene-2-carboximidamide hydrochloride] | 5.00 |
| COc1c(OC)c(Cl)c2sc(C(=N)NO)cc2c1Cl [Cl OCH3 Cl NH2 S HCl, 4,7-dichloro-N-hydroxy-5,6-dimethoxy-benzo[b]thiophene-2-carboximidamide hydrochloride] | 5.10 |
